The results in this text go back to US20170315136A9, “BIOMARKER ASSAY OF NEUROLOGICAL CONDITION” (priority 2009, published 2017).

Data set [1] deals with Female Sprague-Dawley rats. To be noted: for GFAP levels / SBDP150 levels / UCH-L1 levels: biofluid, 30, 60, 90, 120 minutes following dosing. The method, then:
Acute oral In vivo drug candidate screening for neurotoxicity. […] A total of four to eight animals of are used for each dose level investigated.
At 30, 60, 90, and 120 minutes following dosing, the rats are sacrificed by decapitation and blood is obtained by cardiac puncture. The levels of biofluid UCH-L1 and SBDP 150 and GFAP are analyzed by sandwich ELISA or western blot by using UCH-L1 and SBDP 150 and GFAP specific antibodies.

Data set [2] has as its system Mouse, rat cortical or hippocampal primary neurons. Briefly: In vitro drug candidate screening for neurotoxicity (ELISA of cell lysates). The class given is cell-based. The conditions noted are these: primary neurons 21 DIV; Glutamate 0.01 to 1000 μM for 30 minutes, H2O2 0.001 to 1000 μM for 24 hours; lysates by ELISA. Here is the method: In vitro drug candidate screening for neurotoxicity. Mouse, rat cortical or hippocampal primary neurons are cultured for 21 DIV, and the dose dependent responses of drugs are investigated. Cultured cells are exposed to various concentrations of: Glutamate (0.01 to 1000 μM) in 10 μM glycine both in HBSS; B) 0.01 to 100 μM Kainate in culture media; C) H2O2 (0.001 to 1000 μM) in culture media; C) Zinc (0.01 to 1000 μM) in culture media; D) U0126 (0.001 to 100 μM) in culture media; and E) and equal volume of culture media as a control. Glutamate treatment is performed for 30 minutes after which the cells are washed and the HBSS is replaced with culture media and analyzed. The remaining candidates are treated for 24 hours and analyzed. The levels of intracellular UCH-L1 and SBDP 145 are analyzed following cell lysis and screening of the lysates by ELISA using anti-UCH-L1 and SBDP 145 specific antibodies. The levels of UCH-L1 are increased following exposure particularly to Glutamate and H2O2.

With `N.N.[Cl][Pt][Cl]` [Cisplatin, cisplatin], in data set [1], the GFAP levels entry was “increase”, the SBDP150 levels entry is on record as “increase” and the UCH-L1 levels entry is given as “increase”.

In the case of `N[C@@H](CCC(=O)O)C(=O)O` [Glutamate], in data set [2], the “levels of intracellular UCH-L1” value is on record as “increased”.

Take `OO` [H2O2]: the “levels of intracellular UCH-L1” value in data set [2] is reported as “increased”.

Turning to `CN1CC=C(c2ccccc2)CC1` [MPTP], in data set [1], the GFAP levels result was “increase”, the SBDP150 levels entry was “increase” and the UCH-L1 levels result is listed as “increase”.

As to `C[C@]12N[C@H](Cc3ccccc31)c1ccccc12` [dizocilpine], in data set [1], the GFAP levels entry is recorded as “increase”, the SBDP150 levels entry was “increase” and the UCH-L1 levels entry is recorded as “increase”.

With `C=C(C)[C@H]1CN[C@H](C(=O)O)[C@H]1CC(=O)O` [kainic acid], in data set [1], the GFAP levels entry is recorded as “increase”, the SBDP150 levels entry is given as “increase” and the UCH-L1 levels result was “increase”.

Take `CN[C@@H](C)Cc1ccccc1` [methamphetamine]: in data set [1] (rat, in vivo), the “CSF concentration of GFAP” value is “increase”, the “CSF concentration of SBDP 150” value is “increase” and the “CSF concentration of UCH-L1” value was “increase”.
